Results published in ChEMBL document CHEMBL4308890, “A carbapenem-based fluorescence assay for the screening of metallo-β-lactamase inhibitors” (Bioorg Med Chem Lett, 2019).

Columns and labels:
[1] = Inhibition of Aeromonas hydrophila ATCC 7966 CphA expressed in Escherichia coli LMG194 using CPC-1 as substrate preincubated for 10 mins followed by substrate addition by fluorescence assay; parameters: species or system Aeromonas hydrophila subsp. hydrophila ATCC 7966
[2] = Inhibition of Aeromonas hydrophila ATCC 7966 NDM1 expressed in Escherichia coli LMG194 using FC3 as substrate preincubated for 10 mins followed by substrate addition by fluorescence assay; parameters: species or system Aeromonas hydrophila subsp. hydrophila ATCC 7966
[3] = Inhibition of Aeromonas hydrophila ATCC 7966 NDM1 expressed in Escherichia coli LMG194 using CPC-1 as substrate preincubated for 10 mins followed by substrate addition by fluorescence assay; parameters: species or system Aeromonas hydrophila subsp. hydrophila ATCC 7966
[4] = Inhibition of Aeromonas hydrophila ATCC 7966 IMP1 expressed in Escherichia coli LMG194 using FC3 as substrate preincubated for 10 mins followed by substrate addition by fluorescence assay; parameters: species or system Aeromonas hydrophila subsp. hydrophila ATCC 7966
[5] = Inhibition of Aeromonas hydrophila ATCC 7966 IMP1 expressed in Escherichia coli LMG194 using CPC-1 as substrate preincubated for 10 mins followed by substrate addition by fluorescence assay; parameters: species or system Aeromonas hydrophila subsp. hydrophila ATCC 7966
[6] = Inhibition of Aeromonas hydrophila ATCC 7966 CphA expressed in Escherichia coli LMG194 using imipenem as substrate; parameters: species or system Aeromonas hydrophila subsp. hydrophila ATCC 7966
[7] = Inhibition of Aeromonas hydrophila ATCC 7966 beta-lactamase L1 expressed in Escherichia coli LMG194 using CPC-1 as substrate preincubated for 10 mins followed by substrate addition by fluorescence assay; parameters: species or system Aeromonas hydrophila subsp. hydrophila ATCC 7966
[8] = Inhibition of Aeromonas hydrophila ATCC 7966 beta-lactamase L1 expressed in Escherichia coli LMG194 using FC3 as substrate preincubated for 10 mins followed by substrate addition by fluorescence assay; parameters: species or system Aeromonas hydrophila subsp. hydrophila ATCC 7966
[9] = tested on: Aeromonas hydrophila subsp. hydrophila ATCC 7966; assay: Inhibition of Aeromonas hydrophila ATCC 7966 CphA expressed in Escherichia coli LMG194 at 50 uM using CPC-1 as substrate preincubated for 10 mins followed by substrate addition by fluorescence assay relative to control

| Structure (SMILES) | IC50 [1] | IC50 [2] | IC50 [3] | IC50 [4] | IC50 [5] | IC50 [6] | IC50 [7] | IC50 [8] | inhibition [9] |
| --- | --- | --- | --- | --- | --- | --- | --- | --- | --- |
| O=C(O)c1cccc(C(=O)O)n1 [DIPICOLINIC ACID] | 61.5 µM | 6.2 µM | 8.8 µM | 29.4 µM | 23.6 µM | 88.4 µM | – | – | – |
| OCC(S)CS (stereo not given) [DIMERCAPROL] | 7.8 µM | 1 µM | 1.5 µM | 6.2 µM | 7.1 µM | – | 5 µM | 2.6 µM | > 80% |
| O=c1c2ccccc2[se]n1-c1ccccc1 | – | – | – | – | – | – | – | – | < 50% |
